# In patent US20220289788A1, “3-HYDROXY-5-PREGNANE-20-ONE DERIVATIVE AND USE THEREOF” (priority 2019, published 2022):
# Where a name gives a salt, the structure may show the parent alone.
# Experiments:
# physchem = conditions: 25 °C, thermodynamic from solid
# [1] = Stability of compound in 5% glucose solution (HPLC purity over time); type: physicochemical; conditions: about 1 mg/g, room temperature
# Method: An appropriate amount of the derivative of the present invention was weighed respectively, dissolved in a 5% glucose solution and prepared into a solution with a concentration of about 1 mg/g.
# (1) Blank solution: Methanol.
# (2) Sample solution: A suitable solution was taken and filtered through a 0.22 μm filter membrane.
# [2] = Pharmacokinetic testing after single oral administration, allopregnanolone detected in plasma; type: in vivo; conditions: male SD rats, i.g. 20 mg/kg (as allopregnanolone)
# Excerpt: The object of this experiment is to study the single oral administration of each compound solution of the present invention, and an allopregnanolone solution, to detect allopregnanolone, an active ingredient in plasma, and to evaluate its pharmacokinetic (PK) properties in SD rats. The solution was to dissolve each compound in an aqueous solution containing 5% Tween 20.
# The male SD rats used in this embodiment, weighing 180-220 g, were purchased from Shanghai SLAC Laboratory Animal Co., Ltd. All animals were fasted overnight, until 4 hours after administration.
# The experimental SD rats were grouped by randomized block design, and 5 rats in each group, namely allopregnanolone group, compound 1 hydrochloride group, compound 2 hydrochloride group, compound 14 hydrochloride group, and compound 15 hydrochloride group. Each group was administered by irrigation (i.g.) at a dose of 20 mg/kg (as measured by allopregnanolone).
# 0.0833 h, 0.25 h, 0.5 h, 1 h, 2 h, 3 h, 4 h, 6 h, 9 h, 12 h, 24 h after the administration, about 0.6 mL of blood sample was collected from peripheral veins and transferred to a commercial centrifuge tube containing 0.85 to 1.15 mg of K2 EDTA anticoagulant (Jiangsu Kangjian Medical Products Co., Ltd.). Within 30 minutes after blood collection, plasma was centrifuged (centrifugation at 3,000 g for 10 minutes at approximately 4° C.). The plasma was placed in a labeled polypropylene tube, quick-frozen in dry ice, then stored in an ultra-low temperature freezer at −60° C. or lower for testing. LC-MS/MS bioassay was used to detect the concentration of drug in SD rat plasma. Blood concentration-time data was analyzed using a non-compartment model and a WinNonlin software package (version6.3 or later), as shown in Table-3.
# [3] = cited from earlier work
# [4] = pH 4.5 buffer solution, pH 4.5, aqueous buffer
SMILES,solubility at 24 h (physchem; water),solubility at 24 h (physchem; [4]),AUC0-last [2],also measured
CC(=O)[C@H]1CC[C@H]2[C@@H]3CC[C@H]4CC(OC(=O)C(NC(=O)C(N)CC(C)C)C(C)C)CC[C@]4(C)[C@H]3CC[C@]12C (stereo partly drawn) [Compound 7 hydrochloride],7380 µg/mL,,,
CC(=O)[C@H]1CCC2[C@@H]3CCC4CC(OC(=O)C(NC(=O)C(N)Cc5c[nH]c6ccccc56)C(C)C)CC[C@]4(C)C3CC[C@@]21C (stereo partly drawn) [Compound 5 hydrochloride],70 µg/mL,,,
CC(=O)[C@H]1CC[C@H]2[C@@H]3CC[C@H]4C[C@H](OC(=O)[C@H](C)NC(=O)CN)CC[C@]4(C)[C@H]3CC[C@]12C [Compound 12 hydrochloride],2620 µg/mL,1910 µg/mL,,
CC(=O)[C@H]1CC[C@H]2[C@@H]3CC[C@H]4C[C@H](OC(=O)[C@H](C)OC(=O)[C@@H](N)C(C)C)CC[C@]4(C)[C@H]3CC[C@]12C [Compound 13 hydrochloride],370 µg/mL,10 µg/mL,,
CC(=O)[C@H]1CCC2[C@@H]3CCC4CC(OC(=O)C(NC(=O)C5CCCN5)C(C)C)CC[C@]4(C)C3CC[C@@]21C (stereo partly drawn) [Compound 4 hydrochloride],190 µg/mL,,,
CC(=O)[C@H]1CC[C@H]2[C@@H]3CC[C@H]4C[C@H](OC(=O)[C@@H](NC(=O)C(C)N)C(C)C)CC[C@]4(C)[C@H]3CC[C@]12C (stereo partly drawn) [Compound 6 hydrochloride],5680 µg/mL,,,
CC(=O)[C@H]1CC[C@H]2[C@@H]3CC[C@H]4C[C@H](OC(=O)[C@H](C)NC(=O)[C@@H](N)C(C)C)CC[C@]4(C)[C@H]3CC[C@]12C [Compound 10 hydrochloride],,,,Purity ([1]; 0 hour): 99.12%; Purity ([1]; 1 hour): 99.09%; Purity ([1]; 3 hours): 99.04%; Purity ([1]; 5 hours): 98.05%; Purity ([1]; 8 hours): 97.89%
CC(=O)[C@H]1CCC2[C@@H]3CCC4CC(OC(=O)C(NC(=O)CN)C(C)C)CC[C@]4(C)C3CC[C@@]21C (stereo partly drawn) [Compound 2 hydrochloride],> 10000 µg/mL,> 10000 µg/mL,196.0 ng′ hours/mL,Purity ([1]; 0 hour): 95.00%; Purity ([1]; 1 hour): 94.59%; Purity ([1]; 3 hours): 94.50%; Purity ([1]; 5 hours): 94.05%; Purity ([1]; 8 hours): 94.33%
CC(=O)[C@H]1CC[C@H]2[C@@H]3CC[C@H]4C[C@H](OC(=O)CNC(=O)[C@@H](N)C(C)C)CC[C@]4(C)[C@H]3CC[C@]12C [Compound 14 hydrochloride],> 10000 µg/mL,> 50000 µg/mL,150.2 ng′ hours/mL,
CC(=O)[C@H]1CC[C@H]2[C@@H]3CC[C@H]4C[C@H](OC(=O)CNC(=O)[C@H](C)N)CC[C@]4(C)[C@H]3CC[C@]12C [Compound 23 hydrochloride],640 µg/mL,970 µg/mL,,
"CC(=O)[C@H]1CC[C@H]2[C@@H]3CC[C@H]4C[C@H](O)CC[C@]4(C)[C@H]3CC[C@]12C [Allopregnanolone, allopregnanolone, reference compound]",,,24.9 ng′ hours/mL,human plasma half-life period [3]: about 45 minutes
CC(=O)[C@H]1CC[C@H]2[C@@H]3CC[C@H]4C[C@H](OC(=O)CNC(=O)CN)CC[C@]4(C)[C@H]3CC[C@]12C [Compound 15 hydrochloride],1110 µg/mL,,166.3 ng′ hours/mL,
